The record followed here is patent US8394825B2, “Compound” (Sterix Limited, priority 2007, dated 2013).

For one series, the system named is DU145 cells. As to the kind of experiment: Antiproliferative assay in DU145 cells, WST-1 cell proliferation assay, 96 hours (GI50). In kind it is cell-based. The note with it: Homo sapiens, DU-145, 96 hours post-treatment, triplicate. A digest of the protocol:
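DU145 cells seeded at 5000 cells/well, treated with […] compound or vehicle for 96 h. Viability read by WST-1, expressed as percent of mean control, GI50 derived; triplicate experiments.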

By GI50 is commonly meant the concentration that inhibits growth by half. High values mean less potent growth inhibition, low ones more potent growth inhibition. Broadly, the melting point is the temperature of the solid-liquid transition.

Molecule `COc1cc2c(cc1OCc1ccccc1)CCN(Cc1cccc(N)c1)C2` [compound 34, 2-(3-Aminobenzyl)-6-(benzyloxy)-7-methoxy-1,2,3,4-tetrahydroisoquinoline] showed a melting point of 114 to 115 °C. In the series with DU145 cells, this molecule showed a GI50 of more than 100 µM.

The molecule `COc1cc2c(cc1O)CCN(Cc1ccccc1)C2` [compound 38, 2-Benzyl-6-hydroxy-7-methoxy-1,2,3,4-tetrahydroisoquinoline] registered a melting point of 134 to 135 °C. In addition, in the series on DU145 cells, the GI50 was more than 100 µM.

Take `COc1ccc(CN2CCc3cc(O)c(OC)cc3C2)cc1` [compound 39, 6-Hydroxy-7-methoxy-2-(4-methoxybenzyl)-1,2,3,4-tetrahydroisoquinoline]: the melting point was 162 to 163 °C. In the series with DU145 cells, this molecule yielded a GI50 of more than 100 µM.

`COc1cccc(CN2CCc3cc(O)c(OC)cc3C2)c1` [compound 40, 6-Hydroxy-7-methoxy-2-(3-methoxybenzyl)-1,2,3,4-tetrahydroisoquinoline] returned a melting point of 161 to 162 °C. The GI50 in the series with DU145 cells is more than 100 µM.

Molecule `COc1cc2c(cc1O)CCN(Cc1ccccc1OC)C2` [compound 41, 6-Hydroxy-7-methoxy-2-(2-methoxybenzyl)-1,2,3,4-tetrahydroisoquinoline] displayed a melting point of 128 to 129 °C. In the series with DU145 cells, this molecule had a GI50 of more than 100 µM.

As to `COc1cc(CN2CCc3cc(O)c(OC)cc3C2)cc(OC)c1` [compound 42, 6-Hydroxy-2-(3,5-dimethoxybenzyl)-7-methoxy-1,2,3,4-tetrahydroisoquinoline], the melting point was 127 to 128 °C. This molecule yielded a GI50 with DU145 cells of 50 to 100 µM.

`COc1cc2c(cc1O)CCN(Cc1cccc(Oc3ccccc3)c1)C2` [compound 43, 6-Hydroxy-7-methoxy-2-(3-phenoxybenzyl)-1,2,3,4-tetrahydroisoquinoline] registered a melting point of 139 to 140 °C. In the series with DU145 cells, this molecule displayed a GI50 of 10 to 50 µM.

The molecule `COc1cc2c(cc1O)CCN(Cc1cc(OC)c(OC)c(OC)c1)C2` [compound 54, 6-Hydroxy-7-methoxy-2-(3,4,5-trimethoxybenzyl)-1,2,3,4-tetrahydroisoquinoline] had a melting point of 170 to 171 °C. Also, the GI50 in the series with DU145 cells is less than 10 µM.

In turn, `COc1ccc(OC)c(CN2CCc3cc(O)c(OC)cc3C2)c1` [compound 55, 6-Hydroxy-7-methoxy-2-(2,5-dimethoxybenzyl)-1,2,3,4-tetrahydroisoquinoline] gave a melting point of 104 to 105 °C. In the series on DU145 cells, this molecule returned a GI50 of 50 to 100 µM.

In the case of `COc1cc2c(cc1O)CCN(Cc1cccc(OC)c1OC)C2` [compound 56, 6-Hydroxy-7-methoxy-2-(2,3-dimethoxybenzyl)-1,2,3,4-tetrahydroisoquinoline], the melting point was in the range of 101 to 102 °C. The molecule further returned a GI50 with DU145 cells of more than 100 µM.

`COc1cc2c(cc1O)CCN(Cc1ccc(OC)c(OC)c1)C2` [compound 57, 6-Hydroxy-7-methoxy-2-(3,4-dimethoxybenzyl)-1,2,3,4-tetrahydroisoquinoline] displayed a melting point of 146 to 147 °C. In the series with DU145 cells, the GI50 was more than 100 µM.

Molecule `COc1cc2c(cc1O)CCN(Cc1ccc(OC)c(OC)c1OC)C2` [compound 58, 6-Hydroxy-7-methoxy-2-(2,3,4-trimethoxybenzyl)-1,2,3,4-tetrahydroisoquinoline] came in with a melting point of 65 to 66 °C. In the series with DU145 cells, this molecule displayed a GI50 of more than 100 µM.

Regarding `COc1cc2c(cc1O)CCN(Cc1cc(OC)c(OC)cc1OC)C2` [compound 59, 6-Hydroxy-7-methoxy-2-(2,4,5-trimethoxybenzyl)-1,2,3,4-tetrahydroisoquinoline], the melting point is 152 to 153 °C. In the series with DU145 cells, this molecule yielded a GI50 of less than 10 µM.

Molecule `COc1cc2c(cc1O)CCN(Cc1cccc(F)c1)C2` [compound 60, 2-(3-Fluorobenzyl)-6-hydroxy-7-methoxy-1,2,3,4-tetrahydroisoquinoline] gave a melting point of 125 to 127 °C. The GI50 in the series on DU145 cells was more than 100 µM.

`COc1cc2c(cc1O)CCN(Cc1cccc(OC(C)C)c1)C2` [compound 61, 2-(3-Isopropoxybenzyl)-6-hydroxy-7-methoxy-1,2,3,4-tetrahydroisoquinoline] had a melting point of 143 to 146 °C. Besides, the GI50 in the series on DU145 cells was more than 100 µM.

Molecule `CCOc1cccc(CN2CCc3cc(O)c(OC)cc3C2)c1` [compound 63, 2-(3-Ethoxybenzyl)-6-hydroxy-7-methoxy-1,2,3,4-tetrahydroisoquinoline] returned a melting point of 105 to 106 °C. For the same molecule, in the series with DU145 cells, the GI50 was more than 100 µM.

Take `COc1cc2c(cc1O)CCN(Cc1cccc(C#N)c1)C2` [compound 64, 2-(3-Cyanobenzyl)-6-hydroxy-7-methoxy-1,2,3,4-tetrahydroisoquinoline]: the melting point was 113 to 155 °C. This molecule also came in with a 50% growth inhibitory concentration (GI50) in the series on DU145 cells of more than 100 µM.

In turn, `COc1cc2c(cc1O)CCN(Cc1ccc(C#N)cc1)C2` [compound 65, 2-(4-Cyanobenzyl)-6-hydroxy-7-methoxy-1,2,3,4-tetrahydroisoquinoline] gave a melting point of 165 to 166.5 °C. The concentration for 50% growth inhibition (GI50) in the series with DU145 cells is more than 100 µM.

`COc1cc2c(cc1O)CCN(Cc1cccc([N+](=O)[O-])c1)C2` [compound 66, 6-Hydroxy-7-methoxy-2-(3-nitrobenzyl)-1,2,3,4-tetrahydroisoquinoline] came in with a melting point of 127 to 128 °C. Besides, the concentration for 50% growth inhibition (GI50) in the series on DU145 cells is more than 100 µM.

For `COc1cc2c(cc1O)CCN(Cc1cccc(Cl)c1)C2` [compound 67, 2-(3-Chlorobenzyl)-6-hydroxy-7-methoxy-1,2,3,4-tetrahydroisoquinoline], the melting point lay within 118 to 119.5 °C. The concentration for 50% growth inhibition (GI50) with DU145 cells lay within 50 to 100 µM.

`COc1cc2c(cc1O)CCN(Cc1cccc(OC(F)(F)F)c1)C2` [compound 68, 6-Hydroxy-7-methoxy-2-(3-trifluoromethoxybenzyl)-1,2,3,4-tetrahydroisoquinoline] came in with a melting point of 122 to 124 °C. The same molecule displayed a GI50 in the series with DU145 cells of 50 to 100 µM.

Take `COc1cc2c(cc1O)CCN(Cc1ccccc1O)C2` [compound 69, 2-(2-Hydroxybenzyl)-6-hydroxy-7-methoxy-1,2,3,4-tetrahydroisoquinoline]: the melting point lay in the range of 151.9 to 152.6 °C. For the same molecule, the GI50 in the series on DU145 cells is more than 100 µM.

In turn, `COc1cc2c(cc1O)CCN(Cc1cccc(O)c1)C2` [compound 70, 2-(3-Hydroxybenzyl)-7-methoxy-1,2,3,4-tetrahydroisoquinolin-6-ol] came in with a melting point of 177 to 178 °C. In the series on DU145 cells, this molecule registered a GI50 of more than 100 µM.

For the molecule `COc1ccc(C(=O)N2CCc3cc(OCc4ccccc4)c(OC)cc3C2)cc1` [compound 108, 7-Methoxy-2-(4-methoxybenzoyl)-6-benzyloxy-1,2,3,4-tetrahydroisoquinoline], the melting point was in the range of 126 to 127 °C. The molecule also gave a GI50 with DU145 cells of 10 to 50 µM.

The molecule `COc1cc(OC)cc(C(=O)N2CCc3cc(OCc4ccccc4)c(OC)cc3C2)c1` [compound 110, 6-Benzyloxy-2-(3,5-dimethoxybenzoyl)-7-methoxy-1,2,3,4-tetrahydroisoquinoline] registered a melting point of 130 to 131 °C. The molecule also gave a GI50 in the series with DU145 cells of 10 to 50 µM.

`COc1cc2c(cc1O)CCN(C(=O)c1ccccc1OC)C2` [compound 115, 6-Hydroxy-7-methoxy-2-(2-methoxybenzoyl)-1,2,3,4-tetrahydroisoquinoline] yielded a melting point of 176 to 177 °C. The same molecule returned a GI50 with DU145 cells of 50 to 100 µM.

Molecule `COc1cccc(C(=O)N2CCc3cc(O)c(OC)cc3C2)c1` [compound 116, 6-Hydroxy-7-methoxy-2-(3-methoxybenzoyl)-1,2,3,4-tetrahydroisoquinoline] yielded a melting point of 141 to 142 °C. In the series with DU145 cells, this molecule yielded a GI50 of 10 to 50 µM.

The molecule `COc1ccc(C(=O)N2CCc3cc(O)c(OC)cc3C2)cc1` [compound 117, 6-Hydroxy-7-methoxy-2-(4-methoxybenzoyl)-1,2,3,4-tetrahydroisoquinoline] returned a melting point of 173 to 174 °C. Moreover, in the series on DU145 cells, the concentration for 50% growth inhibition (GI50) was more than 100 µM.

Regarding `COc1cc2c(cc1O)CCN(C(=O)c1ccc(OC)c(OC)c1)C2` [compound 118, 2-(3,4-Dimethoxybenzoyl)-6-hydroxy-7-methoxy-1,2,3,4-tetrahydroisoquinoline], the melting point lay in the range of 132 to 133 °C. This molecule returned a GI50 in the series with DU145 cells of more than 100 µM.

Consider `COc1cc2c(cc1O)CCN(C(=O)c1cc(OC)c(OC)c(OC)c1)C2` [compound 120, 6-Hydroxy-7-methoxy-2-(3,4,5-trimethoxybenzoyl)-1,2,3,4-tetrahydroisoquinoline], for which the melting point was 172 to 173 °C. The same molecule returned a GI50 in the series on DU145 cells of less than 10 µM.

On to `COc1ccc(C(=O)N2CCc3cc(OCc4ccccc4)c(OC)cc3C2=O)cc1` [compound 128, 6-Benzyloxy-7-methoxy-2-(4-methoxybenzoyl)-3,4-dihydro-2H-isoquinolin-1-one], for which the melting point was in the range of 151 to 152 °C. Besides, the 50% growth inhibitory concentration (GI50) with DU145 cells is more than 100 µM.

In the case of `COc1cc(OC)cc(C(=O)N2CCc3cc(OCc4ccccc4)c(OC)cc3C2=O)c1` [compound 129, 6-(Benzyloxy)-2-(3,5-dimethoxybenzoyl)-7-methoxy-3,4-dihydro-2H-isoquinolin-1-one], the melting point was in the range of 180 to 181 °C. This molecule also registered a GI50 in the series with DU145 cells of more than 100 µM.

As to `COc1cc2c(cc1OCc1ccccc1)CCN(C(=O)c1ccccc1OC)C2=O` [compound 130, 6-Benzyloxy-7-methoxy-2-(2-methoxybenzoyl)-3,4-dihydro-2H-isoquinoline-1-one], the melting point lay in the range of 163 to 164 °C. Moreover, in the series on DU145 cells, the GI50 is more than 100 µM.

As to `COc1ccc(C(=O)N2CCc3cc(OCc4ccccc4)c(OC)cc3C2=O)cc1OC` [compound 133, 6-(Benzyloxy)-7-methoxy-2-(3,4-dimethoxybenzoyl)-3,4-dihydro-2H-isoquinoline-1-one], the melting point was in the range of 200 to 201 °C. In the series on DU145 cells, the GI50 was more than 100 µM.

Turning to `COc1cc2c(cc1OCc1ccccc1)CCN(C(=O)c1cc(OC)c(OC)c(OC)c1)C2=O` [compound 134, 6-Benzyloxy-7-methoxy-2-(3,4,5-trimethoxybenzoyl)-3,4-dihydro-2H-isoquinolin-1-one], the melting point was in the range of 195 to 196 °C. Also, in the series with DU145 cells, the GI50 was more than 100 µM.
